Reference: patent publication US7560491B2, “Z-stilbenes derivatives and the pharmaceutical composition thereof” (Taipei Medical University, priority 2006, dated 2009)

SMILES	melting point [°C]
COc1ccc(/C=C\c2cc(OC)cc(OC)c2N)cc1	83.2 to 86.3
COc1ccc(/C=C\c2cc(OC)c(OC)cc2N)cc1	62.7 to 63.8
COc1ccc(/C=C\c2cc(OC)c(OC)c(OC)c2N)cc1N	97.3 to 98.1
